Assay results reported in US9278942B2, “Non-steroidal compounds as androgen receptor modulators” (FLX Discoveries Oy, priority 2011, dated 2016).
Where two headings read alike, the source gives them in different places.

What was measured:
human AR [1] = molecular target: T1, human AR (Homo sapiens, UniProt P10275); assay: Competitive AR binding assay against [3H]-R1881 in transiently transfected COS-1 cells; settings: compound 13.4 μM, [3H]-R1881 1.34 nM, complete inhibition equals 100%; for inhibition at 13.4 µM: read-out: Inhibition of [3H]-R1881 binding at 1.34 nM ± S.D.
T1 construct: expressed in transfected cells; host or cells: COS-1
T1 sequence (P10275 1-920): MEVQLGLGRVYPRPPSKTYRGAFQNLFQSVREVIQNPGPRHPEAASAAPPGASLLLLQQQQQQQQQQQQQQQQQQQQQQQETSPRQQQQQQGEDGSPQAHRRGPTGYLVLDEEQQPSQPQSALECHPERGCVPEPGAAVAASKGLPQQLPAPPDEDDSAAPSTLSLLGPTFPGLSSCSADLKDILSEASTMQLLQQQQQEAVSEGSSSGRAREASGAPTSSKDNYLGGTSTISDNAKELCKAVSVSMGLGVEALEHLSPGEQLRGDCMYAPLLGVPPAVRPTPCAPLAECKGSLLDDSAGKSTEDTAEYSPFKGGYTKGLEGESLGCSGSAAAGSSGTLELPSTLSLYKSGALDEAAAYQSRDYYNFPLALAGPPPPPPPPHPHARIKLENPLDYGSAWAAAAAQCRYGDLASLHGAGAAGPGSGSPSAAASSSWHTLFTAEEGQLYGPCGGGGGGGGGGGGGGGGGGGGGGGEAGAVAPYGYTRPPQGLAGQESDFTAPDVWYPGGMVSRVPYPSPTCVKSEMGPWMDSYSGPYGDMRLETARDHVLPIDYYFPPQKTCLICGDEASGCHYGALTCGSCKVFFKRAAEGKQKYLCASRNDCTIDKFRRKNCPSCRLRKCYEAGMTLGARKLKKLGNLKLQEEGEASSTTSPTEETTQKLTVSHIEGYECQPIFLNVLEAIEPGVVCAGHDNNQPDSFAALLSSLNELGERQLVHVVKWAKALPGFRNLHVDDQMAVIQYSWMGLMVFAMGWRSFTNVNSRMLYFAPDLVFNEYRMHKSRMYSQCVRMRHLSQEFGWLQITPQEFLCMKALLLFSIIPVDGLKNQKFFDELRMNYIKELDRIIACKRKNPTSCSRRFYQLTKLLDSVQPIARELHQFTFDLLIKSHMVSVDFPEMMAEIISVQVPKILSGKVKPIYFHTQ
Experimental: Competitive AR Binding Assay.
AR binding was measured by a competitive assay against [^3H]-R1881 (PerkinElmer) in transiently transfected COS-1 cells. One day before transfection, COS-1 cells were seeded into 2 ml of DMEM (Dulbecco's modified Eagle medium, Gipco) with 10% dextran-charcoal-treated fetal bovine serum and 0.25% (vol/vol) Penicillin-Streptomysin (Euroclone) at a density of 140×10^3 cells/well. After medium change to DMEM 2.5% FBS, the cells were transfected for 24 hours with 10 ng/well of human AR expression vector pSG5 hAR by using the TransIT method (Micrus Bio TransIT LT1, Transfection Reagent). After 36 hours, the cells where treated with tested compounds using 10000 fold molarities compared to labelled R1881 (1.34 nM). After 2 hours of incubation at 37° C., the medium was removed. The cells were removed from the wells to 150 μl of 1× phosphate buffered saline (PBS), transferred to Eppendorf tubes and centrifuged at 4° C. using 4000×g for 5 min, and then washed twice with 150 μl of PBS. The cell pellets were dissolved to 50 μl of 0.5M NaOH and incubated for 15 min at 56° C., after which the samples (three replicates for each sample compound) were transferred to liquid twinkle tubes with 3 ml of OptiPhase HiSafe 3 twinkle solution (PerkinElmer) and radioactivity of AR-bound [^3H]-R1881 determined. The results were measured with LKB WALLAC 1214 racbeta equipment. The ability of test compounds to bind AR is reported as reduction in bound radioactivity obtained with 1.34 nM [^3H]-R1881.
The results (% inhibition) were calculated as: % inhibition=100−[100×(averagecompound/average[3H]-R1881)].

human AR [2] = molecular target: T1, human AR; assay: AR antagonism assay: inhibition of transcriptional activation of AR (Probasin-luc reporter, COS-1 cells); type: cell-based; settings: compound 10.0 μM, relative luciferase response: 100% for testosterone (no antiandrogenic effect), 0% for complete antagonism; for remaining activity at 10 µM: COS-1, 18 h, read-out: AR antagonism against 100 nM testosterone ± S.D.
Experimental: Determination of the Antiandrogen Activity.
Testosterone was bought from Sigma Chemical Co. (St. Louis, Mo.) and hydroxyflutamide from Chemos GmbH. One day before transfection, COS-1 cells (from ATCC) were seeded into 1 ml of DMEM (Dulbecco's modified Eagle medium, Gibco) with 10% dextran-charcoal-treated fetal bovine serum and 0.25% (vol/vol) Penicillin-Streptomycin (Euroclone) at a density of 70×10^3 cells/well. After medium change to DMEM 2.5% FBS, the cells were transfected for 24 hours with 10 ng/well of human AR expression vector pSG5-hAR, 100 ng/well of reporter plasmid Probasin-luc, and 10 ng/well of control plasmid pCMV-β-gal by using the TransIT method (Micrus Bio TransIT LT1, Transfection Reagent). After the transfection, the cells received treatment of test compounds giving final concentration of 10 μM for each compound. In the antagonist test the wells were also treated with 100 nM final concentration of testosterone. After 18 hours, the cells were washed, lysed and assayed for luciferase and normalization for β-galactosidase activities and protein concentrations. The cells were washed with 100 μl of cold phosphate buffered saline (PBS) and lysed with 35 μl 1× Reporter lysis Buffer (Promega) and frozen (−70° C.) for 30 minutes. Cell lysates were placed in 1.5-ml propylene tubes and centrifuged at 13200×g for 5 minutes at room temperature. For β-galactosidase assay 10 μl of supernatant from each cell extract was transferred to a 96-well plate (96 well Elisa Microplates, PS, Microcon) and incubated for 10 minutes at 37° C. with 65 μl of reaction mixture consisting 0.76 μl 100×Mg-buffer, 12.5 μl ONPG (4 mg/ml), and 54.3 μl of sodium-phosphate buffer (pH 7). The reaction was stopped with treatment of 125 μl Na2CO3. For luciferase assay 10 μl of the supernatant was transferred to a 96-well plate (Greiner Microlon lumitrac 200) and treated with 30 μl of luciferase assay substrate solution (Promega Luciferase Assay System E1501). For the study of protein concentrations 5 μl of the supernatant was transferred to a 96-well plate (Elisa Microplates, PS, Microcon) and mixed with 200 μl of Bio-rad protein assay reagent. The luciferase activities were measured with Thermo Luminoscan Ascent scanner and the protein concentrations and β-galactosidase activities with Thermo Labsystem Multiscan Ex scanner. Also blank and control samples were measured. During the maintenance, transfection, and treatment with tested compounds the cells were incubated in humidified atmosphere with 5% carbon dioxide at 37° C.

Fc1ccc(C2=NOC3CCCCCC23)c(C(F)(F)F)c1 (stereo not shown) [Example 40b, 3-(4-Fluoro-2-trifluoromethyl-phenyl)-4,5,6,7,8,8a-hexahydro-3aH-cyclohepta[d]isoxazole]
Inhibition of [3H]-R1881 binding at 1.34 nM ± S.D. (human AR [1]; Table 2): 92.2 ± 0.7% | AR antagonism against 100 nM testosterone ± S.D. (human AR [2]): 15.6 ± 0.8%

c1ccc2c(C3=NOC4CCCCC34)cccc2c1 (single isomer, unassigned) [Example 33b, 3-Naphthalen-1-yl-3a,4,5,6,7,7a-hexahydro-benzo[d]-isoxazole]
Inhibition of [3H]-R1881 binding at 1.34 nM ± S.D. (human AR [1]; Table 1): 56.9 ± 4.4% | AR antagonism against 100 nM testosterone ± S.D. (human AR [2]): 100%

N#Cc1cccc(C2=NOC3CCCCCC23)c1C(F)(F)F (stereo not shown) [Example 95b, 3-(4,5,6,7,8,8a-Hexahydro-3aH-cyclohepta[d]isoxazol-3-yl)-2-trifluoromethyl-benzonitrile]
Inhibition of [3H]-R1881 binding at 1.34 nM ± S.D. (human AR [1]; Table 3): 98.1 ± 0.3% | AR antagonism against 100 nM testosterone ± S.D. (human AR [2]): 19.2 ± 2.9%

COc1ccccc1C1=NOC2CCCCC12 (stereo not shown) [Example 23ab, 3-(2-Methoxy-phenyl)-3a,4,5,6,7,7a-hexahydro-benzo[d]isoxazole]
remaining activity at 10 µM (human AR [2]): 40.9 ± 2.4%

O=[N+]([O-])c1ccc(C2=NOC3CCCCC23)cc1C(F)(F)F (stereo not shown) [Example 37ab, 3-(4-Nitro-3-trifluoromethyl-phenyl)-3a,4,5,6,7,7a-hexahydro-benzo-[d]-isoxazole]
inhibition at 13.4 µM (human AR [1]; Table 1): 93.5 ± 0.9% | remaining activity at 10 µM (human AR [2]): 10.6 ± 1.6%

Fc1ccc(C2=NOC3CCCCC23)cc1C(F)(F)F (stereo not shown) [Example 35ab, 3-(4-Fluoro-3-trifluoromethyl-phenyl)-3a,4,5,6,7,7a-hexahydro-benzo-[d]-isoxazole]
inhibition at 13.4 µM (human AR [1]; Table 2): 88.5 ± 4.2% | remaining activity at 10 µM (human AR [2]): 53.4 ± 5.4%

O=[N+]([O-])c1ccc(C2=NOC3CCCC23)cc1C(F)(F)F (single isomer, unassigned) [Example 21b, 3-(4-Nitro-3-trifluoromethyl-phenyl)-4,5,6,6a-tetrahydro-3aH-cyclopenta[d]isoxazole]
Inhibition of [3H]-R1881 binding at 1.34 nM ± S.D. (human AR [1]; Table 3): 90.9 ± 0.9% | AR antagonism against 100 nM testosterone ± S.D. (human AR [2]): 22.9 ± 4.9%

Fc1ccc(C2=NOC3CCCCC23)c(C(F)(F)F)c1 (stereo not shown) [Example 36b, 3-(4-Fluoro-2-trifluoromethyl-phenyl)-3a,4,5,6,7,7a-hexahydro-benzo[d]-isoxazole]
Inhibition of [3H]-R1881 binding at 1.34 nM ± S.D. (human AR [1]; Table 2): 87.7 ± 3.0% | AR antagonism against 100 nM testosterone ± S.D. (human AR [2]): 30.0 ± 6.1%

Oc1ccc(C2=NOC3CCCCC23)cc1 (stereo not shown) [Example 26a, 4-(3a,4,5,6,7,7a-Hexahydro-benzo[d]isoxazol-3-yl)-phenol]
remaining activity at 10 µM (human AR [2]): 25.7 ± 5.5%

O=[N+]([O-])c1ccc(C2=NOC3CCCCC23)cc1 (stereo not shown) [Example 34ab, 3-(4-Nitro-phenyl)-3a,4,5,6,7,7a-hexahydro-benzo[d]-isoxazole]
remaining activity at 10 µM (human AR [2]): 48 ± 6.7%

Oc1ccc(C2=NOC3CCCCC23)cc1 (stereo not shown) [Example 26b, 4-(3a,4,5,6,7,7a-Hexahydro-benzo[d]isoxazol-3-yl)-phenol]
AR antagonism against 100 nM testosterone ± S.D. (human AR [2]): 41.0 ± 1.6%

COc1ccc(C2=NOC(Cc3ccccc3)(c3ccccc3)C2)cc1 (single isomer, unassigned) [Example 14b, 5-Benzyl-3-(4-methoxyphenyl)-5-phenyl-4,5-dihydro-isoxazole]
Inhibition of [3H]-R1881 binding at 1.34 nM ± S.D. (human AR [1]; Table 1): 0%

O=[N+]([O-])c1ccc(C2=NOC3CCCCC23)cc1 (single isomer, unassigned) [Example 34b, 3-(4-Nitro-phenyl)-3a,4,5,6,7,7a-hexahydro-benzo[d]-isoxazole]
Inhibition of [3H]-R1881 binding at 1.34 nM ± S.D. (human AR [1]; Table 1): 0%

COc1ccccc1C1=NOC(Cc2ccccc2)(c2ccccc2)C1 (single isomer, unassigned) [Example 12a, 5-Benzyl-3-(2-methoxyphenyl)-5-phenyl-4,5-dihydro-isoxazole]
Inhibition of [3H]-R1881 binding at 1.34 nM ± S.D. (human AR [1]; Table 1): 55.9 ± 1.1%

CC1(Cc2ccccc2)CC(c2ccc(Cl)cc2)=NO1 (stereo not shown) [Example 7ab, 5-Benzyl-3-(4-chlorophenyl)-5-methyl-4,5-dihydro-isoxazole]
inhibition at 13.4 µM (human AR [1]; Table 1): 51 ± 2.4%

CCCCN1C(CCCc2ccccc2)=NOC1(C)Cc1ccccc1 (stereo not shown) [Example 59ab, 5-Benzyl-4-butyl-5-methyl-3-(3-phenyl-propyl)-4,5-dihydro-[1,2,4]oxadiazole]
inhibition at 13.4 µM (human AR [1]; Table 1): 39.1 ± 2.6%

Clc1ccccc1C1=NOC2CCCCC12 (single isomer, unassigned) [Example 30a, 3-(2-Chloro-phenyl)-3a,4,5,6,7,7a-hexahydro-benzo[d]-isoxazole]
Inhibition of [3H]-R1881 binding at 1.34 nM ± S.D. (human AR [1]; Table 1): 30.2 ± 3.8%

Clc1cccc(C2=NOC3CCCCC23)c1 (single isomer, unassigned) [Example 31b, 3-(3-Chloro-phenyl)-3a,4,5,6,7,7a-hexahydro-benzo[d]-isoxazole]
Inhibition of [3H]-R1881 binding at 1.34 nM ± S.D. (human AR [1]; Table 1): 0%
